Source: US20200261421A1, “HETEROCYCLIC COMPOUNDS AS HIV PROTEASE INHIBITORS” (Merck Sharp & Dohme Corp., priority 2016, published 2020)

Molecular target: T1, wild-type HIV-1 protease (Human immunodeficiency virus type 1 group M subtype B, UniProt P04585)
T1 construct: Escherichia coli expressed wild-type HIV-1 protease protein; made in house; host or cells: Escherichia coli
Assay: Assay for Inhibition of Microbial Expressed HIV Protease
Type: biochemical
Conditions: Escherichia coli expressed wild-type HIV-1 protease, peptide substrate cleavage; mean of at least two independent experiments
Procedure: Inhibition of Escherichia coli expressed wild-type HIV-1 protease protein was carried out with a peptide substrate [Val-Ser-Gln-Asn-Wnaphtyl)Ala-Pro-Ile-Val]. The inhibitor compound was preincubated with HIV-1 protease enzyme in assay buffer (50 mM sodium acetate, pH 5.5, 100 mM NaCl, and 0.1% BSA) for 30 minutes at room temperature. Peptide substrate was added to 400 μM in a total volume of 20 μL containing 20 pM HIV-1 protease (final) after which the reaction was incubated for 1 hour at 30° C. The reaction was quenched by the addition of formic acid and HIV protease inhibitor indinavir to 0.012% and 150 nM final concentrations, respectively. Product formation was determined after separation of product and substrate on a ZORBAX Eclipse XDB-C18 column (Aligent Technologies, Santa Clara, Calif., USA) connected to an API 4000™ mass spectrometer (AB Sciex, Pte. Ltd., Concord Ontario, Canada) with multiple reaction monitoring (transitions were 644.5/428.9 and 615.4/422.2 (M1/M3) for product and indinavir respectively). The extent of inhibition of the reaction was determined from the peak area of the products. Analysis of the products, independently synthesized, provided quantitation standards and confirmation of the product composition. […] Ic50's refer to the 50% inhibition of the cleavage of a peptide substrate by hiv protease.
Data shown in the table reflects the mean of at least two independent experiments.

CC(C)CC1(c2ccccc2)NC(=N)N(Cc2ccc(C(F)(F)F)c(C(=O)NCc3ccc(C#N)cc3)c2)C1=O (stereo not shown) [Example 1, N-(4-cyanobenzyl)-5-{[2-imino-4-(2-methylpropyl)-5-oxo-4-phenylimidazolidin-1-yl]methyl}-2-(trifluoromethyl)benzamide]
IC50: 16 nM

CN(Cc1ccc(C#N)cc1)C(=O)c1cc(CN2C(=N)NC(c3ccccc3)(c3ccccc3)C2=O)ccc1C(F)(F)F [Example 2, N-(4-cyanobenzyl)-5-[(2-imino-5-oxo-4,4-diphenylimidazolidin-1-yl)methyl]-N-methyl-2-(trifluoromethyl)benzamide]
IC50: 18.2 nM

CN(Cc1ccccc1S(C)(=O)=O)C(=O)c1cc(CN2C(=N)NC(c3ccccc3)(c3ccccc3)C2=O)ccc1C(F)(F)F [Example 3, 5-[(2-imino-5-oxo-4,4-diphenylimidazolidin-1-yl)methyl]-N-methyl-N-[2-(methylsulfonyl)benzyl]-2-(trifluoromethyl)benzamide]
IC50: 22.3 nM

N=C1NC(c2ccc(F)cc2)(c2ccc(F)cc2)C(=O)N1Cc1ccc(C(F)(F)F)c(C(=O)NCc2cnccn2)c1 [Example 4, 5-{[4,4-bis(4-fluorophenyl)-2-imino-5-oxoimidazolidin-1-yl]methyl}-N-(pyrazin-2-ylmethyl)-2-(trifluoromethyl)benzamide]
IC50: 30.9 nM

N#Cc1ccc(CNC(=O)c2cc(CN3C(=N)NC(c4ccc(F)cc4)(c4ccc(F)cc4)C3=O)ccc2C(F)(F)F)cc1 [Example 5, 5-{[4,4-bis(4-fluorophenyl)-2-imino-5-oxoimidazolidin-1-yl]methyl}-N-(4-cyanobenzyl)-2-(trifluoromethyl)benzamide]
IC50: 43 nM

CC(C)CC1(c2ccccc2)NC(=N)N(Cc2ccc(C(F)(F)F)c(C(=O)NCc3cnccn3)c2)C1=O (stereo not shown) [Example 6, 5-{[2-imino-4-(2-methylpropyl)-5-oxo-4-phenylimidazolidin-1-yl]methyl}-N-(pyrazin-2-ylmethyl)-2-(trifluoromethyl)benzamide]
IC50: 46.4 nM

N=C1NC(c2ccccc2)(c2ccccc2)C(=O)N1Cc1ccc(C(F)(F)F)c(C(=O)NCc2ccccc2OC(F)F)c1 [Example 7, N-[2-(difluoromethoxy)benzyl]-5-[(2-imino-5-oxo-4,4-diphenylimidazolidin-1-yl)methyl]-2-(trifluoromethyl)benzamide]
IC50: 52.4 nM

CC(C)CCC1(c2ccccc2)NC(=N)N(Cc2ccc(C(F)(F)F)c(C(=O)NCc3ncccn3)c2)C1=O (stereo not shown) [Example 8, 5-{[2-imino-4-(3-methylbutyl)-5-oxo-4-phenylimidazolidin-1-yl]methyl}-N-(pyrimidin-2-ylmethyl)-2-(trifluoromethyl)benzamide]
IC50: 54.6 nM

N=C1NC(c2ccccc2)(c2ccccc2)C(=O)N1Cc1ccc(C(F)(F)F)c(C(=O)NCc2cccc(OC(F)F)c2)c1 [Example 9, N-[3-(difluoromethoxy)benzyl]-5-[(2-imino-5-oxo-4,4-diphenylimidazolidin-1-yl)methyl]-2-(trifluoromethyl)benzamide]
IC50: 68.4 nM

CC(C)CCC1(c2ccccc2)NC(=N)N(Cc2ccc(C(F)(F)F)c(C(=O)NCC(F)F)c2)C1=O (stereo not shown) [Example 10, N-(2,2-difluoroethyl)-5-{[2-imino-4-(3-methylbutyl)-5-oxo-4-phenylimidazolidin-1-yl]methyl}-2-(trifluoromethyl)benzamide]
IC50: 91.2 nM

CC(C)CC1(c2ccccc2)NC(=N)N(Cc2ccc(C(F)(F)F)c(C(=O)NCc3ncccn3)c2)C1=O (stereo not shown) [Example 11, 5-{[2-imino-4-(2-methylpropyl)-5-oxo-4-phenylimidazolidin-1-yl]methyl}-N-(pyrimidin-2-ylmethyl)-2-(trifluoromethyl)-benzamide]
IC50: 92.1 nM

N=C1NC(c2ccccc2)(c2ccccc2)C(=O)N1Cc1ccc(C(F)(F)F)c(C(=O)NCc2ccc(OC(F)F)cc2)c1 [Example 12, N-[4-(difluoromethoxy)benzyl]-5-[(2-imino-5-oxo-4,4-diphenylimidazolidin-1-yl)methyl]-2-(trifluoromethyl)benzamide]
IC50: 94.1 nM

CN(Cc1ccc(C#N)cc1)C(=O)c1cccc(CN2C(=N)NC(c3ccc(F)cc3)(c3ccc(F)cc3)C2=O)c1 [Example 13, 3-{[4,4-bis(4-fluorophenyl)-2-imino-5-oxoimidazolidin-1-yl]methyl}-N-(4-cyanobenzyl)-N-methylbenzamide]
IC50: 6.69 nM

CC(C)CCC1(c2ccccc2)NC(=N)N(Cc2cccc(C(=O)N(C)Cc3ccc(C#N)cc3)c2)C1=O (stereo not shown) [Example 14, N-(4-cyanobenzyl)-3-{[2-imino-4-(3-methylbutyl)-5-oxo-4-phenylimidazolidin-1-yl]methyl}-N-methylbenzamide]
IC50: 7.35 nM

CC(C)CC[C@]1(c2ccccc2)NC(=N)N([C@H](C)c2cccc(C(=O)N(C)Cc3ccc(F)cc3)c2)C1=O [Example 15, N-(4-fluorobenzyl)-3-{(1R)-1-[2-imino-4-(3-methylbutyl)-5-oxo-4-phenylimidazolidin-1-yl]ethyl}-N-methylbenzamide]
IC50: 9.11 nM

CC(C)CC1(c2ccc(F)cc2)NC(=N)N(Cc2cccc(C(=O)N(C)Cc3ccc(Cl)cc3)c2)C1=O (stereo not shown) [Example 16, N-(4-chlorobenzyl)-3-{[4-(4-fluorophenyl)-2-imino-4-(2-methylpropyl)-5-oxoimidazolidin-1-yl]methyl}-N-methylbenzamide]
IC50: 9.12 nM

CC(C)CCC1(c2ccccc2)NC(=N)N(Cc2cccc(C(=O)N(C)Cc3ccc(F)cc3)c2)C1=O (stereo not shown) [Example 17, N-(4-fluorobenzyl)-3-{[2-imino-4-(3-methylbutyl)-5-oxo-4-phenylimidazolidin-1-yl]methyl}-N-methylbenzamide]
IC50: 10.3 nM

CN(Cc1ccc(Cl)nc1)C(=O)c1cccc(CN2C(=N)NC(c3ccc(F)cc3)(c3ccc(F)cc3)C2=O)c1 [Example 18, 3-{[4,4-bis(4-fluorophenyl)-2-imino-5-oxoimidazolidin-1-yl]methyl}-N-[(6-chloropyridin-3-yl)methyl]-N-methylbenzamide]
IC50: 10.3 nM

CN(Cc1ccc(Cl)cc1)C(=O)c1cccc(CN2C(=N)NC(c3ccc(F)cc3)(c3cccc(C(N)=O)c3)C2=O)c1 (stereo not shown) [Example 19, 3-{[4-(3-carbamoylphenyl)-4-(4-fluorophenyl)-2-imino-5-oxoimidazolidin-1-yl]methyl}-N-(4-chlorobenzyl)-N-methylbenzamide]
IC50: 11.6 nM

C[C@H](c1ccc(F)cc1)N(C)C(=O)c1cccc(CN2C(=N)NC(c3ccccc3)(c3ccccc3)C2=O)c1 [Example 20, N-[(1R)-1-(4-fluorophenyl)ethyl]-3-[(2-imino-5-oxo-4,4-diphenylimidazolidin-1-yl)methyl]-N-methylbenzamide]
IC50: 11.7 nM

CN(Cc1ccc(Cl)cn1)C(=O)c1cccc(CN2C(=N)NC(c3ccc(F)cc3)(c3ccc(F)cc3)C2=O)c1 [Example 21, 3-{[4,4-bis(4-fluorophenyl)-2-imino-5-oxoimidazolidin-1-yl]methyl}-N-[(5-chloropyridin-2-yl)methyl]-N-methylbenzamide]
IC50: 12.7 nM

CC(C)CCC1(c2ccc(F)cc2)NC(=N)N(Cc2cccc(C(=O)N(C)Cc3ccc(Cl)cc3)c2)C1=O (stereo not shown) [Example 22, N-(4-chlorobenzyl)-3-{[4-(4-fluorophenyl)-2-imino-4-(3-methylbutyl)-5-oxoimidazolidin-1-yl]methyl}-N-methylbenzamide]
IC50: 12.9 nM
